For assay [1], the target named is T1, CtHtrA (Chlamydia trachomatis serovar D, UniProt P18584).
T1 construct: His-tag; made in house; host or cells: E. coli BL21 (DE3), plasmid pETHtrA
T1 sequence (P18584 17-497): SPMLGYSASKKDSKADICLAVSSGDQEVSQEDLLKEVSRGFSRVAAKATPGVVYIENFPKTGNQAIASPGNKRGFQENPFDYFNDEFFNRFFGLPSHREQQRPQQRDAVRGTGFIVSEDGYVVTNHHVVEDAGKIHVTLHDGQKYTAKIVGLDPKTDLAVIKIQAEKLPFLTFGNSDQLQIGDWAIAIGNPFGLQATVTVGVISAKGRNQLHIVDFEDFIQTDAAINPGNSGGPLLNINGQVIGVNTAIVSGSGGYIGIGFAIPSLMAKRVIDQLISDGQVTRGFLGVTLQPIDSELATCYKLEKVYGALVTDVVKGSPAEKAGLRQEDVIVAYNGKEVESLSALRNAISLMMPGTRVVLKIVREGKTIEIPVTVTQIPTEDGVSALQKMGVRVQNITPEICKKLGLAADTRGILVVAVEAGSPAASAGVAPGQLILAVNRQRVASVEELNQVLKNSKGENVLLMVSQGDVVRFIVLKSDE
In words: Activation of CtHtrA cleavage of Bcas1 substrate by added activator. The class given is biochemical. The following applies: substrate Bcas1 (MCA-ENLHLPLPIIF-DNP), fluorimetric, 37°C. Here is the method:
To determine if the addition of a second peptide to the protease assays could activate or increase CtHtrA proteolysis, two activator peptides were tested in the CtHtrA cleavage of the model ß-casein peptide substrate Bcas1. The first was based on the ß-casein C-terminal sequence (Act1: NH2-VLGPVRGPFPIIV-OH) and the second on insulin b chain C-terminal sequence (Act2: NH2-CGELGFFYTP-OH).
Finally, in order to determine if the 24-mer (highest amount with MOMP protein, or Act1), or 12-mer, or both, corresponds to enhanced protease activity, the incubations of CtHtrA and these potential in vivo activators were used for protease assays with the Bcas1 substrate (Fig. 6). […] The presence of the majority of CtHtrA as higher order oligomers correlated with an increased rate of proteolysis for CtHtrA, particularly when these oligomers were predominately 24-mers.
The purified recombinant protein was examined by Coomassie stained polyacrylamide gels and activity was checked using ß-casein cleavage assays prior to use in peptide assays. Briefly, this involved incubating 2 µg of the protease with 10 µg of ß-casein in 50 mM Tris pH 7.0, 20 mM MgCl2 for 2 h prior to examining the assays by SDS PAGE (ß-casein and protease only controls were always conducted). Protease assays using peptides were conducted using custom synthesised peptides (Mimotopes). […] Protease assays using pNA labelled peptides were conducted using the xMARK Microplate spectrophotometer (Bio-Rad) at 405 nm, incubated at 37°C, with a reading taken every 10 s for 30 min. The maximum slope over a minimum of 8 readings was used for the data analysis. […] The assays were excited at 340 nm and emission was detected at 405 nm with a gain of 1000, the assays were monitored every 20 s or at the minimum cycle time for up to 40 min. […] The assay results shown for the fluorescent compounds have been normalised for the amount of fluorescent emission detected using a standard curve of known concentrations of the MCA fluorophore under the identical assay conditions. […]

Assay [2] has as its target T1, CtHtrA. In words: MS and MS-MS analysis of peptide cleavage products. The assay is classed as biochemical. Conditions: data not shown. Here is the method: Bcas1 and Act1 peptides (150 µM concentration) digested with CtHtrA (71 µg) were analysed by online LC/MS/MS using a QStar Pulsar I (Applied Biosystems) in […] mode. Data acquired were converted into mzXML format using proteowizard (v2) and searched using ([…], the global proteome machine, ftp://ftp.thegpm.org/fasta/cRAP), against CtHtrA and Act1 and Bcas1 peptide sequences with an included decoy database of the reverse sequence for each protein. The search also included potential mass modifications accounting for the additional […] moieties on the N and C peptide termini, respectively. Matches with an expected ratio of <1 were considered identified. All raw data and mass spectra can be made available on request.

Entries after “also recorded” stand apart in the source; their conditions may differ.

In the case of H-VLGPVRGPFPIIV-OH [Act1], the “effect of activator on rate of CtHtrA proteolysis of Bcas1” value in assay [1] is listed as “greater ability of the two activators to increase the proteolysis rate; also recorded: increased proteolysis rate”. The “cleavage of activator peptide by CtHtrA, MALDI MS MS” value in assay [2] is “No evidence of Act1 cleavage”.
